According to ChEMBL document CHEMBL4842331, “Targeted Discovery of the Polyene Macrolide Hexacosalactone A from Streptomyces by Reporter-Guided Selection of Fermentation Media” (J Nat Prod, 2021):
≈ marks a conversion by molar mass, not a printed value. Calls of active or inactive are those of the source. The rule behind the calls is not given here.

Columns and labels:
Phytophthora capsici = experiment: Antifungal activity against Phytophthora capsici assessed as inhibition of fungal growth at 20 ug/disk by paper disk diffusion method; assay type: functional, organism-based; conditions: dose 20.0 µg
Proteus vulgaris = experiment: Antibacterial activity against Proteus vulgaris CPCC 160013 assessed as inhibition of bacterial growth by paper disk diffusion method; assay type: functional
Botryosphaeria dothidea = experiment: Antifungal activity against Botryosphaeria dothidea assessed as inhibition of fungal growth at 20 ug/disk by paper disk diffusion method; assay type: functional, organism-based; conditions: dose 20.0 µg
Alternaria alternata = experiment: Antifungal activity against Alternaria alternata assessed as inhibition of fungal growth at 20 ug/disk by paper disk diffusion method; assay type: functional, organism-based; conditions: dose 20.0 µg
Escherichia coli = experiment: Antibacterial activity against Escherichia coli DH5alpha assessed as inhibition of bacterial growth at 20 ug/disk by paper disk diffusion method; assay type: functional, organism-based; conditions: DH5[alpha], dose 20.0 µg
K562 = experiment: Cytotoxicity against human K562 cells assessed as reduction in cell viability by MTT assay; assay type: functional, cell-based
NCI-H1299 = experiment: Cytotoxicity against human NCI-H1299 cells assessed as reduction in cell viability by MTT assay; assay type: functional, cell-based
Pseudomonas aeruginosa = experiment: Antibacterial activity against Pseudomonas aeruginosa PAO1 assessed as inhibition of bacterial growth at 20 ug/disk by paper disk diffusion method; assay type: functional, organism-based; conditions: dose 20.0 µg
Rhizoctonia solani = experiment: Antifungal activity against Rhizoctonia solani assessed as inhibition of fungal growth at 20 ug/disk by paper disk diffusion method; assay type: functional, organism-based; conditions: dose 20.0 µg
Valsa ambiens = experiment: Antifungal activity against Valsa ambiens assessed as inhibition of fungal growth at 20 ug/disk by paper disk diffusion method; assay type: functional, organism-based; conditions: Cytospora leucosperma; dose 20.0 µg
Staphylococcus aureus = experiment: Antibacterial activity against Staphylococcus aureus ATCC 25923 assessed as inhibition of bacterial growth by paper disk diffusion method; assay type: functional
MDA-MB-231 = experiment: Cytotoxicity against human MDA-MB-231 cells assessed as reduction in cell viability by MTT assay; assay type: functional, cell-based
[1] = test system: Mycolicibacterium smegmatis; experiment: Antibacterial activity against Mycobacterium smegmatis mc2 155 assessed as inhibition of bacterial growth at 20 ug/disk by paper disk diffusion method; assay type: functional, organism-based; conditions: dose 20.0 µg
Salmonella typhimurium = experiment: Antibacterial activity against Salmonella enterica serovar typhimurium UK-1X8956 assessed as inhibition of bacterial growth at 20 ug/disk by paper disk diffusion method; assay type: functional, organism-based; conditions: Salmonella enterica subsp. enterica serovar Typhimurium, dose 20.0 µg

For CO[C@@H]1C[C@H](O)[C@@H](C)[C@H](O)[C@@H](C)C[C@@H](C)C(=O)C(C)[C@H](C(C)C)OC(=O)/C(C)=C/C=C/C(C)=C/C=C/C(C)=C\C[C@H](OC(=O)/C=C/C(=O)NC2=C(O)CCC2=O)[C@@H]1C (some centres undefined), the Activity (Phytophthora capsici) was “inactive”, the MIC (Proteus vulgaris) was 12.5 µg/mL (≈ 15.4 µM) and the Activity (Botryosphaeria dothidea) was “inactive”. The Activity (Alternaria alternata) was “inactive”, the Activity (Escherichia coli) was “inactive” and the IC50 (K562) was > 20 µM. The IC50 (NCI-H1299) was > 20 µM, the Activity (Pseudomonas aeruginosa) was “inactive” and the Activity (Rhizoctonia solani) was “inactive”. The Activity (Valsa ambiens) was “inactive”, the MIC (Staphylococcus aureus) was 12.5 µg/mL (≈ 15.4 µM) and the IC50 (MDA-MB-231) was > 20 µM. The Activity [1] was “inactive” and the Activity (Salmonella typhimurium) was “inactive”.
